Reference: patent US20230159445A1, “STAT INHIBITORY COMPOUNDS AND COMPOSITIONS” (JANPIX LIMITED, priority 2020, published 2023)

What was measured:
glutathione (GSH) = experiment: Reactivity Profiling with Glutathione (GSH), half-life by HPLC; conditions: 5 mM glutathione (GSH) in IMDM with 10% FBS
Procedure: 3.5 μL of 5 mM stocking solution of the inhibitors in DMSO was added to 697.5 μL of Iscove's Modified Dulbecco's Medium (IMDM) supplemented with 10% FBS and antibiotic antimycotic solution, with 5 mM glutathione to afford a final concentration of 25 μM inhibitor with 0.5% DMSO. The solution was then immediately placed in the sample tray at 25° C. […] For each inhibitor, its peak is integrated at different time points and compared to the time zero injection in order to obtain a percentage remaining. Half-life is calculated according to a first order reaction kinetic taking into account those time points for which remaining percentage of inhibitor is above 40%, using the formula: t½=Ln(2)/k, where k is the slope of the linear plot of Ln[Inhibitor] vs time, according to the formula: Ln[A]=Ln[A]0−kt, where [A] is the value resulting from the integration at each time point, [A]0 the value at time zero, and t the time. For each inhibitor, both replicates are averaged and the resulting t½ reported.

MV4-11 cells = experiment: MV4-11 Cell Cytotoxicity Assay (CellTiter-Blue, 72 h); type: cell-based, human; conditions: Homo sapiens, MV4-11; MV-4-11 cells
Method in brief: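 Cells seeded 24 h before treatment, then exposed 72 h at 37° C, 5% CO2 to inhibitors in triplicate, top concentration 50 μM with 1:2 serial dilutions (0.5% DMSO vehicle). Viability read by CellTiter-Blue fluorescence at 560/590 nm after 1 h.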

half-life at 25 μM (glutathione (GSH)) [h]	Structure (SMILES)	IC50 (MV4-11 cells) [nM]
0.00167 to 2.37	O=C(O)c1ccc(N(Cc2cccc(-n3cccc3)c2)C(=O)CN(Cc2cnccc2C(F)(F)F)S(=O)(=O)c2c(F)c(F)c(F)c(F)c2F)c(OC2CC2)c1 [Compound 1161, 4-(N-(3-(1H-pyrrol-1-yl)benzyl)-2-(N-((4-(trifluoromethyl)pyridin-3-yl)methyl)-(2,3,4,5,6-pentafluoro-phenyl)sulfonamido)acetamido)-3-cyclopropoxybenzoic acid]	316 to 1000
9.23 to 1670	COc1cc(C(=O)N(C)S(C)(=O)=O)ccc1N(Cc1cc(C2CC2)cc(C(C)(C)C)c1)C(=O)CN(Cc1cnccc1C(F)(F)F)S(=O)(=O)c1c(F)c(F)c(F)c(F)c1F [Compound 1147, 4-(N-(3-(tert-butyl)-5-cyclopropylbenzyl)-2-(N-((4-(trifluoromethyl)pyridin-3-yl)methyl)-(2,3,4,5,6-pentafluoro-phenyl)sulfonamido)acetamido)-3-methoxy-N-methyl-N-(methylsulfonyl) benzamide]	0.01 to 316
2.37 to 4.12	CC(C)(C)c1cc(CN(C(=O)CN(Cc2ccccc2F)S(=O)(=O)c2c(F)c(F)c(F)c(F)c2F)c2cc(C(=O)O)ccc2OC2CC2)cc(C2CC2)c1 [Compound 1110, 3-(N-(3-(tert-butyl)-5-cyclopropylbenzyl)-2-(N-(2-fluorobenzyl)-(2,3,4,5,6-pentafluoro-phenyl)sulfonamido)acetamido)-4-cyclopropoxybenzoic acid]	316 to 1000
0.00167 to 2.37	CC(C)(C)c1cc(CN(C(=O)CN(Cc2ccccc2F)S(=O)(=O)c2c(F)c(F)c(F)c(F)c2F)c2ccc(C(=O)O)cc2F)cc(C2CC2)c1 [Compound 1065, 4-(N-(3-(tert-butyl)-5-cyclopropylbenzyl)-2-(N-(2-fluorobenzyl)-(2,3,4,5,6-pentafluoro-phenyl)sulfonamido)acetamido)-3-fluorobenzoic acid]	316 to 1000
2.37 to 4.12	COc1cc(C(=O)O)ccc1N(Cc1cc(C2CC2)cc(C(C)(C)C)c1)C(=O)CN(Cc1ccc(C(F)(F)F)nc1)S(=O)(=O)c1c(F)c(F)c(F)c(F)c1F [Compound 1132, 4-(N-(3-(tert-butyl)-5-cyclopropylbenzyl)-2-(N-((6-(trifluoromethyl)pyridin-3-yl)methyl)-(2,3,4,5,6-pentafluoro-phenyl)sulfonamido)acetamido)-3-methoxybenzoic acid]	316 to 1000
4.12 to 9.23	CN(c1cc(C(=O)O)ccc1N(Cc1cc(C2CC2)cc(C(C)(C)C)c1)C(=O)CN(Cc1ccccc1F)S(=O)(=O)c1c(F)c(F)c(F)c(F)c1F)S(C)(=O)=O [Compound 1064, 4-(N-(3-(tert-butyl)-5-cyclopropylbenzyl)-2-(N-(2-fluorobenzyl)-(2,3,4,5,6-pentafluoro-phenyl)sulfonamido)acetamido)-3-(N-methylmethylsulfonamido) benzoic acid]	1000 to 3160
0.00167 to 2.37	O=C(O)c1ccc(N(C(=O)CN(Cc2c(F)cc(F)cc2F)S(=O)(=O)c2c(F)c(F)c(F)c(F)c2F)C2CCC2)c(OC2CC2)c1 [Compound 1137, 4-(N-cyclobutyl-2-(N-(2,4,6-trifluorobenzyl)-(2,3,4,5,6-pentafluoro-phenyl)sulfonamido)acetamido)-3-cyclopropoxybenzoic acid]	1000 to 3160
4.12 to 9.23	C[C@@H](CC(=O)N(Cc1cc(C2CC2)cc(C(C)(C)C)c1)c1ccc(C(=O)O)c(O)c1)N(Cc1ccc(Cl)cc1)S(=O)(=O)c1c(F)c(F)c(F)c(F)c1F [Compound 1040, (S)-4-(N-(3-(tert-butyl)-5-cyclopropylbenzyl)-3-(N-(4-chlorobenzyl)-(2,3,4,5,6-pentafluorophenyl)sulfon-amido)butanamido)-2-hydroxybenzoic acid]	3160 to 100000
2.37 to 4.12	COc1cc(F)ccc1CN(CC(=O)N(Cc1cc(C2CC2)cc(C(C)(C)C)c1)c1ccc(C(=O)O)cc1OC)S(=O)(=O)c1c(F)c(F)c(F)c(F)c1F [Compound 1077, 4-(N-(3-(tert-butyl)-5-cyclopropylbenzyl)-2-(N-(4-fluoro-2-methoxybenzyl)-(2,3,4,5,6-pentafluoro-phenyl)sulfonamido)acetamido)-3-methoxybenzoic acid]	316 to 1000
0.00167 to 2.37	CC(C)(C)c1cc(CN(C(=O)CN(Cc2ccc(Cl)cc2)S(=O)(=O)c2c(F)c(F)c(F)c(F)c2F)c2ccc(C(=O)O)c(F)c2)cc(C2CC2)c1 [Compound 1033, 4-(N-(3-(tert-butyl)-5-cyclopropylbenzyl)-2-(N-(4-chlorobenzyl)-(2,3,4,5,6-pentafluorophenyl)sulfon-amido)acetamido)-2-fluorobenzoic acid]	1000 to 3160
4.12 to 9.23	CN(C)c1cc(C(=O)O)c(F)cc1N(Cc1cc(C2CC2)cc(C(C)(C)C)c1)C(=O)CN(Cc1c(F)cc(F)cc1F)S(=O)(=O)c1c(F)c(F)c(F)c(F)c1F [Compound 1124, 4-(N-(3-(tert-butyl)-5-cyclopropylbenzyl)-2-(N-(2,4,6-trifluorobenzyl)-(2,3,4,5,6-pentafluoro-phenyl)sulfonamido)acetamido)-5-(dimethylamino)-2-fluorobenzoic acid]	0.01 to 316
9.23 to 1670	CC(C)(C)c1cc(CN(C(=O)CN(Cc2ccccc2OC(F)(F)F)S(=O)(=O)c2c(F)c(F)c(F)c(F)c2F)c2ccc(C(=O)O)cc2OC2CC2)cc(C2CC2)c1 [Compound 1235, 4-(N-(3-(tert-butyl)-5-cyclopropylbenzyl)-2-(N-(2-(trifluoromethoxy)benzyl)-(2,3,4,5,6-pentafluoro-phenyl)sulfonamido)acetamido)-3-cyclopropoxybenzoic acid]	316 to 1000
2.37 to 4.12	COc1cc(C(=O)O)ccc1N(Cc1cc(C2CC2)cc(C(C)(C)C)c1)C(=O)CN(Cc1cccc(F)c1F)S(=O)(=O)c1c(F)c(F)c(F)c(F)c1F [Compound 1080, 4-(N-(3-(tert-butyl)-5-cyclopropylbenzyl)-2-(N-(2,3-difluorobenzyl)-(2,3,4,5,6-pentafluorophenyl)sulfonamido)acetamido)-3-methoxybenzoic acid]	0.01 to 316
4.12 to 9.23	O=C(O)c1ccc(N(Cc2cc(C3CC3)cc(C3CC3)c2)C(=O)CN(Cc2ccccc2F)S(=O)(=O)c2c(F)c(F)c(F)c(F)c2F)c(OC2CC2)c1 [Compound 1099, 3-cyclopropoxy-4-(N-(3,5-dicyclopropylbenzyl)-2-(N-(2-fluorobenzyl)-(2,3,4,5,6-pentafluoro-phenyl)sulfonamido)acetamido)benzoic acid]	0.01 to 316
4.12 to 9.23	COc1cc(C(=O)O)ccc1N(Cc1cc(C2CC2)cc(C(C)(C)C)c1)C(=O)CN(Cc1ccc(F)c(F)c1F)S(=O)(=O)c1c(F)c(F)c(F)c(F)c1F [Compound 1083, 4-(N-(3-(tert-butyl)-5-cyclopropylbenzyl)-2-(N-(2,3,4-trifluorobenzyl)-(2,3,4,5,6-pentafluoro-phenyl)sulfonamido)acetamido)-3-methoxybenzoic acid]	0.01 to 316
4.12 to 9.23	COc1cc(N(Cc2cc(C3CC3)cc(C(C)(C)C)c2)C(=O)CN(Cc2ccc(Cl)cc2)S(=O)(=O)c2c(F)c(F)c(F)c(F)c2F)ccc1C(=O)O [Compound 1017, 4-(N-(3-(tert-butyl)-5-cyclopropylbenzyl)-2-(N-(4-chlorobenzyl)-(2,3,4,5,6-pentafluorophenyl)sulfon-amido)acetamido)-2-methoxybenzoic acid]	316 to 1000
9.23 to 1670	O=C(O)c1ccc(N(Cc2cc(C3CC3)cc(C3CC3)c2)C(=O)CN(Cc2ccc(F)cc2Cl)S(=O)(=O)c2ccc(F)nc2)c(OC2CC2)c1 [Compound 1225, 4-(2-(N-(2-chloro-4-fluorobenzyl)-(6-fluoropyridine)-3-sulfonamido)-N-(3,5-dicyclopropylbenzyl)acetamido)-3-cyclopropoxybenzoic acid]	3160 to 100000
2.37 to 4.12	Cc1cc(C(=O)O)ccc1N(Cc1cc(C2CC2)cc(C(C)(C)C)c1)C(=O)CN(Cc1ccccc1F)S(=O)(=O)c1c(F)c(F)c(F)c(F)c1F [Compound 1088, 4-(N-(3-(tert-butyl)-5-cyclopropylbenzyl)-2-(N-(2-fluorobenzyl)-(2,3,4,5,6-pentafluoro-phenyl)sulfonamido)acetamido)-3-methylbenzoic acid]	0.01 to 316
9.23 to 1670	Cc1cc(C(=O)O)cc(C)c1N(Cc1cc(C2CC2)cc(C(C)(C)C)c1)C(=O)CN(Cc1c(F)c(F)c(F)c(F)c1F)S(=O)(=O)c1c(F)c(F)c(F)c(F)c1F [Compound 1201, 4-(N-(3-(tert-butyl)-5-cyclopropylbenzyl)-2-(N-((perfluorophenyl)methyl)-(2,3,4,5,6-pentafluorophenyl)sulfonamido)acetamido)-3,5-dimethylbenzoic acid]	316 to 1000
2.37 to 4.12	COc1cc(C(=O)O)ccc1N(Cc1cc(C2CC2)cc(C(C)(C)C)c1)C(=O)CN(Cc1ccncc1C(F)(F)F)S(=O)(=O)c1c(F)c(F)c(F)c(F)c1F [Compound 1130, 4-(N-(3-(tert-butyl)-5-cyclopropylbenzyl)-2-(N-((3-(trifluoromethyl)pyridin-4-yl)methyl)-(2,3,4,5,6-pentafluoro-phenyl)sulfonamido)acetamido)-3-methoxybenzoic acid]	316 to 1000

Structure (SMILES)	half-life at 25 μM (glutathione (GSH)) [h]	IC50 (MV4-11 cells) [nM]
CC(C)COc1cc(CN(C(=O)CN(Cc2ccc(Cl)cc2)S(=O)(=O)c2c(F)c(F)c(F)c(F)c2F)c2ccc(C(=O)O)c(O)c2)cc(OCC2CC2)c1 [Compound 1010, 4-(2-(N-(4-chlorobenzyl)-(2,3,4,5,6-pentafluorophenyl)sulfonamido)-N-(3-(cyclopropylmethoxy)-5-isobutoxybenzyl)acetamido)-2-hydroxybenzoic acid]	2.37 to 4.12	3160 to 100000
